Earlier results in US6582498B1, “Method of separating carbon dioxide from a gas mixture using a fluid dynamic instability” (Battelle Memorial Institute, priority 2001, dated 2003).

NCCO [MEA, monoethanolamine]
eye irritation (for rabbit) (rabbit): 0.763 milligrams | LD50 (oral for rat) (rat): 2,050 mg/kg | LD50 (intraperitoneal for mouse) (mouse): 50 mg/kg
